Measured values published in PMC4055595, “Pharmacokinetic Compatibility of Ginsenosides and Schisandra Lignans in Shengmai-san: From the Perspective of P-Glycoprotein” (PLoS ONE, 2014).
Like-named read-outs stand apart in the source and are kept apart here.

Tests used:
[1] = biological target: human MDR1-encoded P-gp (L-MDR1 cells) (Homo sapiens, UniProt P08183); assay: Uptake (intracellular concentration) of digoxin and ginsenosides in L-MDR1 cells; format: in vitro ADME
Procedure: LLC-PK1 cells, a cell line lacking P-gp, and the derived cell line L-MDR1, which over-express human MDR1-encoded P-gp, were grown in minimum essential medium with supplements at 37°C, 5% CO2, and 95% humidity. LLC-PK1 and L-MDR1 cells were seeded at a density of 12×10^6 cells per 150-cm^2 flask and grown for 7 days in medium 199 supplemented with 2 mM glutamine, 10% fetal bovine serum, 10 mg/500 mL of streptomycin, and 10,000 IU/500 mL of penicillin. To ensure a constant expression level of transport protein, L-MDR1 cells were grown in the presence of 640 nM vincristine. Cells were grown as monolayer on polycarbonate membrane filters (Transwell; Costar Corporation, Cambridge, MA) as outlined previously. Transepithelial resistance was measured in each well using a Millicell ERS ohmmeter (Millipore, Bedford, MA); wells registering a resistance of 200 ohms or greater, after correcting for the resistance obtained in control blank wells, were used in the transport experiments.
LLC-PK1 and L-MDR1 cells were incubated with SLE (2.0 and 10.0 µg/mL) or verapamil (10 µM) for 1.0 h, and then were washed to discard SLE or verapamil before adding 100 µg/mL of GE. The accumulation of GE lasted for 2 h, and the intracellular concentrations of ginsenosides were measured by LC/MS. All experiments were conducted in triplicate.

[2] = Rat plasma pharmacokinetics after 10-day vehicle/SLE and digoxin or GE; format: in vivo, Sprague-Dawley rats; details: for AUC(0-inf): read-out: AUCINF_obs; for MRT inf: read-out: MRTINF_obs
Procedure: This study was carried out in strict accordance with the recommendations in the Guide for the Care and Use of Laboratory Animals of the National Institutes of Health. The protocol was approved by the Committee on the Ethics of Animal Experiments of the China Pharmaceutical University. All surgery was performed under sodium pentobarbital anesthesia, and all efforts were made to minimize suffering. […] The rats were fed with standard laboratory food and water and fasted overnight but with free access to water before the test. To evaluate the effect of long-term treatment with SLE on the pharmacokinetics of ginsenosides, 24 rats were also divided into four groups (group I∼ group IV) with 6 animals each. […] On the 11th day, digoxin was administered intragastrically to rats (group I and group II) at a single dose of 0.5 mg/kg, GE was administered intragastrically to rats (group III and group IV) at a single dose of 120 mg/kg. […] Plasma was obtained by centrifugation at 5000 g for 10 min and stored at −20°C before analysis. The plasma / cell samples were extracted using a liquid–liquid extraction technique. To each tube containing 100 µL plasma, 10 µL internal standard (digoxin, 1.0 µg/mL) and 1.0 mL of n-butanol were added. The mixture was then vortex-extracted for 2 min, and centrifuged for 10 min at 10,000 g. […] The plasma concentration-time curves of ginsenosides in rats were obtained by plotting the mean plasma concentrations versus time. Pharmacokinetic parameters were calculated using the WinNonlin 6.3 program (Pharsight Inc., Mountain View, CA). The elimination half-life (t 1/2) value was calculated as 0.693/β, where β is the elimination rate constant calculated from the terminal linear portion of the log plasma concentration-time curve. The total areas under the plasma concentration- time curve from time 0 to the last quantifiable time point (AUC0-t) and from time 0 to infinity (AUC0-∞) were calculated using the log trapezoidal rule. [drawing 3] The maximum plasma concentrations (C max) for ginsenosides were obtained by visual inspection of the plasma concentration-time curve, whereas the initial drug concentration (the extrapolated concentration at zero time) of the drug after intravenous injection was calculated by back-extrapolation of the plasma concentration-time curve to the y-axis.

[3] = Transport of digoxin and ginsenosides across Caco-2 cell monolayer (efflux ratio); format: in vitro ADME, human; details: human
Procedure: Caco-2 cells were purchased from American Type Culture Collection (Manassas, VA), and were routinely cultured in Dulbecco's modified Eagle's medium supplemented with 10% fetal bovine serum, 1% nonessential amino acids, 1 mM sodium pyruvate, and 100 U/mL penicillin and streptomycin (Invitrogen, Carlsbad, CA). The cells were grown in an atmosphere of 5% CO2 at 37°C, and cell medium was changed every other day. Cells were seeded at a density of 4×10^4 cells per well in 24-well microporous polycarbonate insert filter plates (0.4-µm pore size) (Corning Costar plates; Corning Life Sciences, Lowell, MA) and grown for 15 days in Caco-2 growth medium. The medium was replaced every 3 to 4 days. Before running the assay, the culture medium was replaced by HBSS buffer supplemented with 10 mM Hepes and 20 mM glucose.
Caco-2 cells with a density of 1.2×10^5 cells/insert were seeded on a permeable polycarbonate insert (Millicell cell culture inserts, 0.4 µm pore size, 12 mm diameter; Millipore Corporation) in 24-well tissue culture plates and were used for the experiment 18 to 21 days after seeding. [^14C]Mannitol permeability and transepithelial electrical resistance measurements (Millicell-ERS epithelial volt-ohm meter; Millipore Corporation) were used to evaluate the integrity of Caco-2 cell monolayer. The monolayer used in transport studies had transepithelial electrical resistance values exceeding 600 Ω·cm^2, and the leakage of mannitol was less than 0.3% of the dose/h. Before transport initiation studies, the cell monolayer was first washed with warm HBSS (pH 7.4) twice. HBSS containing SLE (2.0 and 10.0 µg/mL) or 1% ethanol (control) was then loaded into both apical and basolateral chambers. After incubation at 37°C for 1.5 h, 100 µg/mL of GE was added to either the apical or basolateral side to evaluate the transport in absorptive and secretory directions, and the cell monolayer was incubated for another 2 h. 10 µM verapamil was used as a positive control inhibitor. At the designated time point, samples were taken from the receiving chamber for analysis. Ginsenosides were determined by LC-MS. All experiments were conducted in triplicate.
For the transport assay, the apparent permeability (P app, cm/s) in each direction (A→B and B→A) was calculated as follows, where A is the surface area of the membrane inserts (0.0804 cm^2), C 0 is the initial concentration of the compound applied in the donor compartment (2 µM), and △Q is the amount (micromoles) of compound transported over time △t (5 h = 18,000 s): [drawing 1]
The efflux ratio (ER) was a dimensionless number calculated as the ratio of the apparent permeability in the B→A direction divided by the apparent permeability in the A→B direction. [drawing 2]

[4] = female, Sprague-Dawley, rat, plasma, po, rats, SLE 500 mg/kg ig once a day for 10 days, day 11 digoxin 0.5 mg/kg or GE 120 mg/kg ig
[5] = female, Sprague-Dawley, rat, plasma, po, rats, SLE 500 mg/kg ig once a day for 10 days, day 11 digoxin 0.5 mg/kg or GE 120 mg/kg ig, read-out: Tmax
[6] = female, Sprague-Dawley, rat, plasma, po, rats, SLE 500 mg/kg ig once a day for 10 days, day 11 digoxin 0.5 mg/kg or GE 120 mg/kg ig, read-out: t1/2 (converted)
[7] = female, Sprague-Dawley, rat, plasma, po, rats, control: vehicle once a day for 10 days, day 11 digoxin 0.5 mg/kg or GE 120 mg/kg ig
[8] = female, Sprague-Dawley, rat, plasma, po, rats, control: vehicle once a day for 10 days, day 11 digoxin 0.5 mg/kg or GE 120 mg/kg ig, read-out: t1/2 (converted)
[9] = rats, SLE 500 mg/kg ig once a day for 10 days, day 11 digoxin 0.5 mg/kg or GE 120 mg/kg ig
[10] = rats, SLE 500 mg/kg x 10 days vs vehicle, GE ig on day 11
[11] = rats, control: vehicle once a day for 10 days, day 11 digoxin 0.5 mg/kg or GE 120 mg/kg ig
[12] = female, Sprague-Dawley, rat, plasma, po, rats, control: vehicle once a day for 10 days, day 11 digoxin 0.5 mg/kg or GE 120 mg/kg ig, read-out: Tmax
[13] = pH 7.4, Caco-2 cell monolayer, absence of inhibitor, GE 100 µg/mL, read-out: Efflux ratio

Chain of human MDR1-encoded P-gp (L-MDR1 cells) (P08183 whole entry): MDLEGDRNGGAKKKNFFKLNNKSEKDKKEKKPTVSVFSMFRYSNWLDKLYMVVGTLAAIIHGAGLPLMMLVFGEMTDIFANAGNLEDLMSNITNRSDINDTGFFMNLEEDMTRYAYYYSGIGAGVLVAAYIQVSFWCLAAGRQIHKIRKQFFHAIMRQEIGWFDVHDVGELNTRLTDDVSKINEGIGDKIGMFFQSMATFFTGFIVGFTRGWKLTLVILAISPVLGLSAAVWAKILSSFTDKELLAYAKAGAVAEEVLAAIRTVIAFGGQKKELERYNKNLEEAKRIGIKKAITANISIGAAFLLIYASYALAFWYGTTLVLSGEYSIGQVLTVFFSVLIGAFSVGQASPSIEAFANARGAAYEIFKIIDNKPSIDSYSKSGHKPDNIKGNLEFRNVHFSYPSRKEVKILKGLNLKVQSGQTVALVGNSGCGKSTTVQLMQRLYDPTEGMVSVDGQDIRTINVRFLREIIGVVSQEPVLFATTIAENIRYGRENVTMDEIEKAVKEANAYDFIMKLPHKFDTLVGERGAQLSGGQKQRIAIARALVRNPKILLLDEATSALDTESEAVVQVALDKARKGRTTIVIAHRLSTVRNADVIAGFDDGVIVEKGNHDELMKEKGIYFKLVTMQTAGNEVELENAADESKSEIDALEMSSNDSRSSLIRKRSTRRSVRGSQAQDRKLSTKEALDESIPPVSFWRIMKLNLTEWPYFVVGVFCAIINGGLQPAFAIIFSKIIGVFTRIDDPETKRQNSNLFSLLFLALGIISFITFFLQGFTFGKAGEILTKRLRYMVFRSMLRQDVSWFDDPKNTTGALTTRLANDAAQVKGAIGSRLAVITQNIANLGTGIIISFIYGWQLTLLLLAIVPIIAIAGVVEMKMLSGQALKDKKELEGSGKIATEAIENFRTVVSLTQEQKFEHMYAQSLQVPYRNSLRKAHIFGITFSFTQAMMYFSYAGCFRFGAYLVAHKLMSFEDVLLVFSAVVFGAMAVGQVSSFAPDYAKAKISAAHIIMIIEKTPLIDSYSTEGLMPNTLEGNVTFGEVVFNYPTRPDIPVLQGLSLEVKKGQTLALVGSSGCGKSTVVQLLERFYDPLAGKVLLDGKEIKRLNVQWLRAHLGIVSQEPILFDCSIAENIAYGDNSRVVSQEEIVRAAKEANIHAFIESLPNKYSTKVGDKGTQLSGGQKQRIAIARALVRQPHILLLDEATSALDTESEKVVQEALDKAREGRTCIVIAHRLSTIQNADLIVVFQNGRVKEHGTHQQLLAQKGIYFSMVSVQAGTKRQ

CC(C)=CCC[C@](C)(O[C@@H]1O[C@H](CO[C@@H]2OC[C@H](O)[C@H](O)[C@H]2O)[C@@H](O)[C@H](O)[C@H]1O)[C@H]1CC[C@]2(C)[C@@H]1[C@H](O)C[C@@H]1[C@@]3(C)CC[C@H](O[C@@H]4O[C@H](CO)[C@@H](O)[C@H](O)[C@H]4O[C@@H]4O[C@H](CO)[C@@H](O)[C@H](O)[C@H]4O)C(C)(C)[C@@H]3CC[C@]12C [Rb2, ginsenoside Rb2]
Increase of intracellular concentration by SLE ([1]; 2.0 µg/mL SLE): 2.0 fold | Increase of intracellular concentration by SLE ([1]; 10.0 µg/mL SLE): 3.7 fold | AUC [2, 4]: 21300 ± 6520 ng·h/mL | Cmax [2, 4]: 586 ± 95.2 ng/mL | AUC(0-inf) [2, 4]: 16600 ± 3510 ng·h/mL | MRT inf [2, 4]: 26.5 ± 6.58 h | Tmax [2, 5]: 10 ± 2.83 h | half-life [2, 6]: 24.3 ± 8.42 h | AUC [2, 7]: 15900 ± 3310 ng·h/mL | Cmax [2, 7]: 512 ± 77.8 ng/mL | AUC(0-inf) [2, 7]: 22600 ± 6120 ng·h/mL | MRT inf [2, 7]: 29.5 ± 2.61 h | half-life [2, 8]: 20.1 ± 3.66 h | AUCINF_obs [2, 9]: 22557 ± 6121 ng·h/mL | Cl_F_obs [2, 9]: 0.0047 ± 0.0011 L/h | Increase of AUC (AUC0-∞) by 10 continuous days administration of SLE [2, 10]: 1.33 fold | AUCINF_obs [2, 11]: 16600 ± 3511 ng·h/mL | Cl_F_obs [2, 11]: 0.0062 ± 0.0013 L/h

C[C@H]1O[C@@H](O[C@H]2[C@@H](O)C[C@H](O[C@H]3[C@@H](O)C[C@H](O[C@H]4CC[C@@]5(C)[C@H](CC[C@@H]6[C@@H]5C[C@@H](O)[C@]5(C)[C@@H](C7=CC(=O)OC7)CC[C@]65O)C4)O[C@@H]3C)O[C@@H]2C)C[C@H](O)[C@@H]1O [Digoxin, digoxin, reference compound]
Increase of intracellular concentration by SLE ([1]; 2.0 µg/mL SLE): 2.7 fold | Enhancement of uptake level by verapamil ([1]; 10 µM verapamil, P<0.05): 3.2 fold | Increase of intracellular concentration by SLE ([1]; 10.0 µg/mL SLE): 3.6 fold | AUC [2, 4]: 123 ± 52.8 ng·h/mL | Cmax [2, 4]: 22.9 ± 13.7 ng/mL | AUC(0-inf) [2, 4]: 127 ± 52.1 ng·h/mL | MRT inf [2, 4]: 4.78 ± 0.91 h | Tmax [2, 5]: 3.28 ± 1.73 h | half-life [2, 6]: 2.19 ± 0.87 h | AUC [2, 7]: 68.3 ± 26 ng·h/mL | Cmax [2, 7]: 11.8 ± 4.22 ng/mL | AUC(0-inf) [2, 7]: 76.1 ± 30 ng·h/mL | MRT inf [2, 7]: 5.65 ± 2.85 h | Tmax [2, 12]: 2.33 ± 1.03 h | half-life [2, 8]: 2.99 ± 2.32 h | Cl_F_obs [2, 9]: 4.49 ± 1.75 L/h | Increase of AUC0-τ by 10 continuous days administration of SLE ([2]; rats, SLE 500 mg/kg x 10 days vs vehicle, digoxin 0.5 mg/kg ig on day 11, P<0.05): about 2 fold | Cl_F_obs [2, 11]: 7.48 ± 3.09 L/h | efflux ratio at 2 h, 100 µg/mL [3, 13]: 3.23

CC(C)=CCC[C@](C)(O[C@@H]1O[C@H](CO[C@@H]2O[C@H](CO)[C@@H](O)[C@H](O)[C@H]2O)[C@@H](O)[C@H](O)[C@H]1O)[C@H]1CC[C@]2(C)[C@@H]1[C@H](O)C[C@@H]1[C@@]3(C)CC[C@H](O[C@@H]4O[C@H](CO)[C@@H](O)[C@H](O)[C@H]4O[C@@H]4O[C@H](CO)[C@@H](O)[C@H](O)[C@H]4O)C(C)(C)[C@@H]3CC[C@]12C [Rb1, ginsenoside Rb1]
Increase of intracellular concentration by SLE ([1]; 2.0 µg/mL SLE): 2.9 fold | Increase of intracellular concentration by SLE ([1]; 10.0 µg/mL SLE): 5.1 fold | AUC [2, 4]: 25600 ± 1300 ng·h/mL | Cmax [2, 4]: 736 ± 143 ng/mL | AUC(0-inf) [2, 4]: 27000 ± 2380 ng·h/mL | MRT inf [2, 4]: 33.5 ± 7.91 h | Tmax [2, 5]: 9.6 ± 2.19 h | half-life [2, 6]: 19.3 ± 8.29 h | AUC [2, 7]: 14100 ± 5070 ng·h/mL | Cmax [2, 7]: 430 ± 135 ng/mL | AUC(0-inf) [2, 7]: 14300 ± 5180 ng·h/mL | MRT inf [2, 7]: 28.1 ± 4.81 h | Tmax [2, 12]: 10 ± 4.47 h | half-life [2, 8]: 17.2 ± 2.16 h | AUCINF_obs [2, 9]: 27017 ± 2381 ng·h/mL | Cl_F_obs [2, 9]: 0.0037 ± 0.0003 L/h | Increase of AUC (AUC0-∞) by 10 continuous days administration of SLE [2, 10]: 1.82 fold | AUCINF_obs [2, 11]: 14324 ± 5178 ng·h/mL | Cl_F_obs [2, 11]: 0.0079 ± 0.0035 L/h | efflux ratio at 2 h, 100 µg/mL [3, 13]: 3.77

CC(C)=CCC[C@](C)(O[C@@H]1O[C@H](CO[C@@H]2O[C@@H](CO)[C@H](O)[C@H]2O)[C@@H](O)[C@H](O)[C@H]1O)[C@H]1CC[C@]2(C)[C@@H]1[C@H](O)C[C@@H]1[C@@]3(C)CC[C@H](O[C@@H]4O[C@H](CO)[C@@H](O)[C@H](O)[C@H]4O[C@@H]4O[C@H](CO)[C@@H](O)[C@H](O)[C@H]4O)C(C)(C)[C@@H]3CC[C@]12C [Rc, ginsenoside Rc]
Increase of intracellular concentration by SLE ([1]; 2.0 µg/mL SLE): 1.9 fold | Increase of intracellular concentration by SLE ([1]; 10.0 µg/mL SLE): 3.5 fold | Increase of AUC (AUC0-∞) by 10 continuous days administration of SLE ([2]; female, Sprague-Dawley, rat, in vivo): 1.16 fold | t1/2 ([2]; female, Sprague-Dawley, rat, in vivo, po): 20.81 ± 9.64 h | Tmax ([2]; female, Sprague-Dawley, rat, in vivo, po, Tmax): 11.2 ± 1.79 h | half-life ([2]; female, Sprague-Dawley, rat, in vivo, po, t1/2): 26.8 ± 3.08 h | efflux ratio at 2 h, 100 µg/mL ([3]; Caco-2, pH 7.4): 4.36
